# Laboratory results taken from US20150211005A1, “MIRNA MODULATORS OF THERMOGENESIS” (APTAMIR THERAPEUTICS, INC., priority 2012, published 2015).
# Legend:
# [1] = test system: human subcutaneous adipocytes; experiment: Phenotypic changes of mature adipocytes cultured two weeks, bright field microscopy; assay type: cell-based; details: day 28; for Average size of lipid droplet: change versus control (Ref); for Average size of lipid droplet / Picture field covered by adipocytes (% of control) / Cell area occupied by lipid droplets (%) / Number of lipid droplet per cell: 50 nM miRNA analogs, 10 μM CL316,243, 10 nM T3, 100 nM Rosiglitazone; for Picture field covered by adipocytes (% of control): Dharmafect 4; for Cell area occupied by lipid droplets (%): control 42%; for Number of lipid droplet per cell: control 68
# Experimental: Human subcutaneous adipocytes were plated in 6-well plates at a density of 391,000 cells per well as described above. Using Dharmafect 4, these adipocytes were transfected at Day 14 with:
# 1. […] A negative control (mock transfection) 3.
# At day 17, the cells were switched to maintenance medium, which was then changed every two-three days until day 28 when bright field microscopy pictures of the cells were taken.
# [2] = test system: UCP3; experiment: RNA-Seq mRNA expression during pre-adipocyte differentiation: UCP3; assay type: cell-based, human; details: pre-adipocytes, 12 days, rosiglitazone 100 nM renewed every other day, miRNA analogs 25 nM, one transfection
# Experimental: (§1) In order to assess the effect of miRNA analogs on human pre-adipocytes differentiation into mature adipocytes, human subcutaneous pre-adipocytes (SuperLot 0048 from 8 female donors, ZenBio, NC) were plated on Day 0 into 96-well plates and allowed to attach overnight in preadipocyte medium (DMEM/Ham's F-12 (1:1, v/v), HEPES buffer, Fetal bovine serum and Antibiotics). […] All treatments were in triplicate. Post transfection, the negative control was maintenance medium only and the positive control was maintenance medium with 100 nM of the PPARG agonist rosiglitazone. After 2 days, medium was removed and replaced with fresh maintenance medium. The maintenance medium then changed every two days until the end of the treatment period (Day 15). At the end of the treatment (total of 15 days in culture) cells were processed for Phenotyping and Genotyping Screening.
# (§2) Profiling of mRNA changes occurring during the differentiation of human pre-adipocyte into mature adipocyte induced by rosiglitazone or miRNA analogs was performed by RNA-Seq technology. […]
# (§3) Changes in mRNA expression of UCP1, 2 and 3 were also measured in the presence of rosiglitazone or miRNA analogs, as shown below in Table 18.
# [3] = test system: UCP1; experiment: RNA-Seq mRNA expression during pre-adipocyte differentiation: UCP1; assay type: cell-based, human; details: pre-adipocytes, 12 days, rosiglitazone 100 nM renewed every other day, miRNA analogs 25 nM, one transfection
# Experimental: as §1, §2, §3
Compound,Average size of lipid droplet [1] [%],Picture field covered by adipocytes (% of control) [1],Cell area occupied by lipid droplets (%) [1] [%],Number of lipid droplet per cell [1],"cell density and browning appearance (bright field, FIG. 22) ([1]; in reference to the control condition)",mRNA Expression changes UCP3 [2] [log ratios],mRNA Expression changes UCP1 [3] [log ratios]
"C[C@H](Cc1ccc2c(c1)OC(C(=O)[O-])(C(=O)[O-])O2)NC[C@H](O)c1cccc(Cl)c1.[Na+].[Na+] [CL316,243]",−44,+24% of control,44,124,increase in cell density and “browning” appearance,–,–
CN(CCOc1ccc(CC2SC(=O)NC2=O)cc1)c1ccccn1 (centres unmarked) [Rosiglitazone],−19,+198% of control,57,113,–,0.26,15.70
